The structures appear in SMILES notation.

The series is described as follows: Comparison of fluorescent values at the same absorption wavelength of compound 2-1 and compound 2-2. Type of series: physicochemical. The protocol: In order to confirm an increase in fluorescent intensity by introducing triazine substituted with a hydroxyl group shown in the compound 3-3 as a linker, the following comparative experiment was conducted.
The compound 2-1 was dissolved in DMF at a concentration of 10 mg/ml and then 5 μl of the compound 2-1 was added to 5 ml of PBS at room temperature, and 5 μl of the compound 2-2 was added to 5 mL of PBS at the same concentration in the same manner. The absorption was measured by adding 2 mL of two samples by 1 mL of PBS and the fluorescence was measured even after diluting the compounds.
In FIGS. 1 and 2, the numerical values of ½ and ¼ indicate that the initial concentration was diluted.

In the case of `CC1(CCCCCC(=O)NCCCNc2nc(O)nc(NCCCCCC(=O)ON3C(=O)CCC3=O)n2)C(/C=C/C=C/C=C2/N(CCCS(=O)(=O)O)c3ccc(S(=O)(=O)O)cc3C2(C)C)=[N+](CCCS(=O)(=O)O)c2ccc(S(=O)(=O)[O-])cc21` (centres unmarked) [Compound 2-2], the “increase in fluorescence intensity” value (compared to compound 2-1, at a concentration representing the same absorption intensity, DMF stock 10 mg/ml diluted in PBS, room temperature) is not below 162%. Besides, the “fluorescence intensity as compared to the compound 2-1” value (single dye form, in PBS, initial concentration and 1/2, 1/4 dilutions) is on record as “the higher the concentration, the higher the fluorescence intensity”.

The values above are taken from US20220229063A1, “FLUORESCENT COMPOUND WITH CYANURIC-HYDROXIDE AND PREPARATION METHOD THEREOF” (Bioacts Corporation, priority 2021, published 2022).
